For one test, the target named is T1, EHMT1 (Homo sapiens, UniProt Q9H9B1).
T1 sequence (Q9H9B1 1-1298): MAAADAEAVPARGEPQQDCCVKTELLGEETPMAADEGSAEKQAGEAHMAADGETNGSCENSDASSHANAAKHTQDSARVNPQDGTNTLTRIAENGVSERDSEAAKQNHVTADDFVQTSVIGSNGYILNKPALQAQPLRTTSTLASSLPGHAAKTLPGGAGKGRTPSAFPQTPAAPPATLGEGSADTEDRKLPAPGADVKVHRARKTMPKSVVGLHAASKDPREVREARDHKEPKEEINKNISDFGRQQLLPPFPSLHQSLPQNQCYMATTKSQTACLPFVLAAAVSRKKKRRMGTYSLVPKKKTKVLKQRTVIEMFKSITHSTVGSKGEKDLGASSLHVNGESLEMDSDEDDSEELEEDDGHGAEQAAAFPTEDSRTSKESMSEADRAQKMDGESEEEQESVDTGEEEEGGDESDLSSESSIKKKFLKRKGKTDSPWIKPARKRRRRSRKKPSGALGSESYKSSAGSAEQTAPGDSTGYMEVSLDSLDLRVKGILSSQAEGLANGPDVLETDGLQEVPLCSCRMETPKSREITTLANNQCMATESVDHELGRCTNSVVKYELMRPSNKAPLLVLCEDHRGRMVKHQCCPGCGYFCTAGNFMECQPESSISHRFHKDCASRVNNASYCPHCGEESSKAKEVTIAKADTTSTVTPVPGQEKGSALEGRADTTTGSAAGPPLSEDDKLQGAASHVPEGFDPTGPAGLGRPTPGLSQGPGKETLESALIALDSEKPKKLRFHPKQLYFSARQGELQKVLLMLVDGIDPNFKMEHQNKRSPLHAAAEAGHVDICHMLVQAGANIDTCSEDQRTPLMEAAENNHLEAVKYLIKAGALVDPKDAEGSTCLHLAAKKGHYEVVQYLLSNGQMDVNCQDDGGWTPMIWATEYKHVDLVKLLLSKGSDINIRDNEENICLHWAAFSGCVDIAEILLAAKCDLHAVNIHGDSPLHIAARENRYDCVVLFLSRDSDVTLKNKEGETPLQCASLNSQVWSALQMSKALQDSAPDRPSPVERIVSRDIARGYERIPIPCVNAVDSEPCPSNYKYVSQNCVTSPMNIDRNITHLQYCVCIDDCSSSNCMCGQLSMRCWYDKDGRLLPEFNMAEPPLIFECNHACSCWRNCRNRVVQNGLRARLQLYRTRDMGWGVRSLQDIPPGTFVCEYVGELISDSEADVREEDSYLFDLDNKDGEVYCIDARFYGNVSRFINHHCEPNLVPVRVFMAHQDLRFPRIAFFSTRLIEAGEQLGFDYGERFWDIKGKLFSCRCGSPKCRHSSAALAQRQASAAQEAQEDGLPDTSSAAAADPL
The test can be described thus: EHMT1 PEP. It counts as biochemical.

Another test deals with T2, human EHMT2 913-1193 (Homo sapiens, UniProt Q96KQ7).
T2 construct: recombinant purified human EHMT2 913-1193, Viva; purchased Viva
T2 sequence (Q96KQ7 913-1193): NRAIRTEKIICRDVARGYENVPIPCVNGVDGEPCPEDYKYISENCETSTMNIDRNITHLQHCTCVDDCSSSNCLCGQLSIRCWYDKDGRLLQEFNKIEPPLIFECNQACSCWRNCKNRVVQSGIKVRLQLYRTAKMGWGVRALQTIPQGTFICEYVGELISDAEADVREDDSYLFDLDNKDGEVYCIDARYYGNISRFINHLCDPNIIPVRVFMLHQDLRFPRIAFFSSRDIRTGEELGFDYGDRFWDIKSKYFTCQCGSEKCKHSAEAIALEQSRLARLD
The test can be described thus: biochemical. The conditions noted are these: recombinant human EHMT2 913-1193, histone H3 1-15 peptide, 3H-SAM, balanced conditions; read-out: EHMT2 PEP (IC50 μM). From the text:
Biotinylated histone peptides were synthesized by Biopeptide and HPLC-purified to >95% purity. Streptavidin Flashplates and seals were purchased from PerkinElmer and 384 Well V-bottom Polypropylene Plates were from Greiner. ^3H-labeled S-adenosylmethionine (^3H-SAM) was obtained from American Radiolabeled Chemicals with a specific activity of 80 Ci/mmol. Unlabeled SAM and S-adenosylhomocysteine (SAH) were obtained from American Radiolabeled Chemicals and Sigma-Aldrich respectively. […] 384-well Flashplates and 96-well filter binding plates were read on a TopCount microplate reader (PerkinElmer). Compound serial dilutions were performed on a Freedom EVO (Tecan) and spotted into assay plates using a Thermo Scientific Matrix PlateMate (Thermo Scientific). Reagent cocktails were added by Multidrop Combi (Thermo Scientific).
General Procedure for EHMT2 Enzyme Assay on Histone Peptide Substrate. 10-point curves of test compounds were made on a Freedom EVO (Tecan) using serial 3-fold dilutions in DMSO, beginning at 2.5 mM (final top concentration of compound was 50 μM and the DMSO was 2%). A 1 μL aliquot of the inhibitor dilution series was spotted in a polypropylene 384-well V-bottom plate (Greiner) using a Thermo Scientific Matrix PlateMate (Thermo Scientific). […] Reactions were incubated for 60 minutes at room temperature and quenched with 10 μL per well of 400 μM unlabeled SAM, then transferred to a 384-well streptavidin Flashplate (PerkinElmer) and washed in a Biotek ELx-405 well washer with 0.1% Tween after 60 minutes. 384-well Flashplates were read on a TopCount microplate reader (PerkinElmer).

Structures are written as SMILES.

From patent US20220274961A1, “SUBSTITUTED FUSED BI- OR TRI- HETEROCYCLIC COMPOUNDS AS EHMT2 INHIBITORS” (priority 2016, published 2022) come the findings set out here.

Broadly, the IC50 is the concentration needed to halve the response being measured.

As to `CNc1nc2cc(OCCCN3CCCC3)c(OC)cc2n1C(C)C` [Compound 36], the IC50 at EHMT1 and on human EHMT2 913-1193 was under 0.1 µM each time.
Turning to `CNc1nc2cc(CNCCN3CCCC3)c(OC)cc2n1C` [Compound 37], the IC50 at EHMT1 and at human EHMT2 913-1193 was under 0.1 µM each time.
As to `CNc1nc2cc(OC[C@H](O)CN3CCCC3)c(OC)cc2n1C1CCCC1` [Compound 38], the IC50 on EHMT1 and on human EHMT2 913-1193 was under 0.1 µM throughout.
In the case of `CCNc1nc2cc(OCCCN3CCCC3)c(OC)cc2n1CC` [Compound 39], the half-maximal inhibitory concentration (IC50) against EHMT1 and on human EHMT2 913-1193 was under 0.1 µM in each case.
Take `CNc1nc2cc(CNCCN3CCCC3)c(OC)cc2n1C(C)C` [Compound 40]: the IC50 against EHMT1 is under 0.1 µM; on human EHMT2 913-1193 it was 0.1 to 1 µM.
For `CCn1c(NC)nc2cc(CNCCN3CCCC3)c(OC)cc21` [Compound 41], the half-inhibitory concentration (IC50) against EHMT1 and on human EHMT2 913-1193 was under 0.1 µM each time.
For the molecule `CCn1c(NC)nc2cc(OCCCN3CCCC3)c(OC)cc21` [Compound 42], the 50% inhibitory concentration (IC50) at EHMT1 and at human EHMT2 913-1193 was under 0.1 µM in each case.
Turning to `CNC1=Nc2cc(CNCCN3CCCC3)c(OC)cc2C12CCC2` [Compound 70], the IC50 on EHMT1 and at human EHMT2 913-1193 was under 0.1 µM each time.
For `CCNC1=Nc2cc(CNCCN3CCCC3)c(OC)cc2C12CCC2` [Compound 71], the IC50 against EHMT1 and on human EHMT2 913-1193 was under 0.1 µM each time.
For the molecule `CCNC1=Nc2cc(CNCCN3CCC3)c(OC)cc2C12CCC2` [Compound 72], the IC50 against EHMT1 and at human EHMT2 913-1193 was under 0.1 µM each time.
For the molecule `CCCNC1=Nc2cc(CNCCN3CCCC3)c(OC)cc2C12CCC2` [Compound 73], the concentration for half-maximal inhibition (IC50) against EHMT1 and on human EHMT2 913-1193 was under 0.1 µM throughout.
With `CNC1=Nc2cc(C#CCN3CCCC3)c(OC)cc2C12CCC2` [Compound 74], the IC50 against EHMT1 and on human EHMT2 913-1193 was under 0.1 µM each time.
With `CNC1=Nc2cc(C#CCN3CCCCC3)c(OC)cc2C12CCC2` [Compound 75, 5′-methoxy-N-methyl-6′-(3-(piperidin-1-yl)prop-1-yn-1-yl)spiro[cyclobutane-1,3′-indol]-2′-amine], the half-inhibitory concentration (IC50) against EHMT1 and at human EHMT2 913-1193 was under 0.1 µM in each case.
As for `COc1cc2c(cc1CNCCN1CCCC1)N=C(NC1CCOCC1)C21CCC1` [Compound 76], the IC50 against EHMT1 and on human EHMT2 913-1193 was 1 to 10 µM throughout.
With `CNC1=Nc2cc(C#CC(C)N3CCCC3)c(OC)cc2C12CCC2` (centres unmarked) [Compound 84], the IC50 against EHMT1 and on human EHMT2 913-1193 was under 0.1 µM in each case.
As to `CNC1=Nc2cc(C#C[C@H](C)N3CCCC3)c(OC)cc2C12CCC2` [Compound 85], the IC50 on EHMT1 and at human EHMT2 913-1193 was under 0.1 µM each time.
As to `CNC1=Nc2cc(C#C[C@@H](C)N3CCCC3)c(OC)cc2C12CCC2` [Compound 86], the IC50 at EHMT1 and on human EHMT2 913-1193 was 0.1 to 1 µM throughout.
Consider `CNC1=Nc2cc(C#CC(C)N3CCCCC3)c(OC)cc2C12CCC2` (centres unmarked) [Compound 92], for which the IC50 at EHMT1 and on human EHMT2 913-1193 was under 0.1 µM throughout.
For `COCCNC1=Nc2cc(C#CCN3CCCCC3)c(OC)cc2C12CCC2` [Compound 99], the 50% inhibitory concentration (IC50) against EHMT1 and on human EHMT2 913-1193 was under 0.1 µM in each case.
Turning to `CNC1=Nc2cc(C#CCN3CCC(F)C3)c(OC)cc2C12CCC2` (centres unmarked) [Compound 100], the IC50 against EHMT1 and at human EHMT2 913-1193 was 0.1 to 1 µM each time.
In the case of `CNc1nc2cc(CNCCN3CCCC3)c(Cl)cc2n1C(C)C` [Compound 138], the half-inhibitory concentration (IC50) at EHMT1 lay within 0.1 to 1 µM; at human EHMT2 913-1193 it was 1 to 10 µM.
On the same counts, the results for `CNc1nc2cc(CNCCN3CCCC3)c(C)cc2n1C(C)C` [Compound 139] are 0.1 to 1 µM and 1 to 10 µM.
